According to patent US5441941A, “1,2-dihydroellipticines with activity against CNS specific cancer” (The United States of America as represented by the …, priority 1993, dated 1995):

Tests used:
OVCAR-4 = experiment: NCI in vitro screen, SRB percent growth, Ovarian Cancer
RXF-393 = experiment: NCI in vitro screen, SRB percent growth, Renal Cancer
NCI-H226 = experiment: cells; settings: Homo sapiens
SR = experiment: NCI in vitro screen, SRB percent growth, Leukemia
SN12C = experiment: NCI in vitro screen, SRB percent growth, Renal Cancer
NCI-H322M = experiment: NCI in vitro screen, SRB percent growth, Non-Small Cell Lung Cancer
HOP-92 = experiment: cells; settings: Homo sapiens
A498 = experiment: NCI in vitro screen, SRB percent growth, Renal Cancer
HOP-18 = experiment: NCI in vitro screen, SRB percent growth, Non-Small Cell Lung Cancer
NCI-H522 = experiment: as above
DMS 273 = experiment: NCI in vitro screen, SRB percent growth, Small Cell Lung Cancer
[1] = Log10 Concentration -4.0, 100 µM
[2] = Log10 Concentration -7.0, 0.1 µM
[3] = NCI-H226, read-out: Percent Growth
[4] = HOP-92, read-out: Percent Growth

Q: `Cc1ccc2[nH]c3c(C)c4c(c(C)c3c2c1)CN(C)C=C4` [Formula XI] was tested. Which “Percent Growth” value (OVCAR-4; [1]) did it give?
A: -85%

Q: And the “Percent Growth” value (OVCAR-4; Log10 Concentration -5.0)?
A: -6%

Q: What about the “Percent Growth” value (OVCAR-4; Log10 Concentration -6.0, 1 µM) of the same compound?
A: 68%

Q: And the “Percent Growth” value (OVCAR-4; [2])?
A: 96%

Q: What about the “Percent Growth” value (OVCAR-4; Log10 Concentration -8.0) of the same compound?
A: 113%

Q: What about the TGI (OVCAR-4; PG=0) of the same compound?
A: 8.34 µM

Q: What about the GI50 (OVCAR-4; PG=+50) of the same compound?
A: 1740 nM

Q: And the CC50 (OVCAR-4; read-out: LC-50, PG=-50)?
A: 36.3 µM

Q: What about the “Percent Growth” value (RXF-393; [1]) of the same compound?
A: -92%

Q: And the “Percent Growth” value (RXF-393; Log10 Concentration -5.0)?
A: 9%

Q: And the “Percent Growth” value (RXF-393; Log10 Concentration -6.0, 1 µM)?
A: 51%

Q: What about the “Percent Growth” value (RXF-393; [2]) of the same compound?
A: 96%

Q: What about the “Percent Growth” value (RXF-393; Log10 Concentration -8.0) of the same compound?
A: 99%

Q: What about the TGI (RXF-393; PG=0) of the same compound?
A: 12.3 µM

Q: And the GI50 (RXF-393; PG=+50)?
A: 1040 nM

Q: What about the CC50 (RXF-393; read-out: LC-50, PG=-50) of the same compound?
A: 38.5 µM

Q: And the GI50 (NCI-H226; NCI-H226)?
A: 329 nM

Q: What about the CC50 (NCI-H226; NCI-H226, read-out: LC-50) of the same compound?
A: 17.4 µM

Q: And the activity at 0.01 µM (NCI-H226; [3])?
A: 99%

Q: What about the activity at 0.1 µM (NCI-H226; [3]) of the same compound?
A: 83%

Q: What about the activity at 1 µM (NCI-H226; [3]) of the same compound?
A: 19%

Q: What about the activity at 10 µM (NCI-H226; [3]) of the same compound?
A: -43%

Q: And the activity at 100 µM (NCI-H226; [3])?
A: -71%

Q: And the IC (TGI) (NCI-H226; NCI-H226, read-out: TGI)?
A: 2.02 µM

Q: And the “Percent Growth” value (SR; [1])?
A: -42%

Q: And the “Percent Growth” value (SR; Log10 Concentration -5.0)?
A: 6%

Q: What about the “Percent Growth” value (SR; Log10 Concentration -6.0, 1 µM) of the same compound?
A: 47%

Q: What about the “Percent Growth” value (SR; [2]) of the same compound?
A: 86%

Q: What about the “Percent Growth” value (SR; Log10 Concentration -8.0) of the same compound?
A: 101%

Q: And the TGI (SR; PG=0)?
A: 13.5 µM

Q: What about the GI50 (SR; PG=+50) of the same compound?
A: 846 nM

Q: And the CC50 (SR; read-out: LC-50, PG=-50)?
A: > 100 µM

Q: What about the “Percent Growth” value (SN12C; [1]) of the same compound?
A: -92%

Q: And the “Percent Growth” value (SN12C; Log10 Concentration -5.0)?
A: -69%

Q: What about the “Percent Growth” value (SN12C; Log10 Concentration -6.0, 1 µM) of the same compound?
A: -36%

Q: And the “Percent Growth” value (SN12C; [2])?
A: 66%

Q: And the “Percent Growth” value (SN12C; Log10 Concentration -8.0)?
A: 92%

Q: What about the TGI (SN12C; PG=0) of the same compound?
A: 442 nM

Q: What about the GI50 (SN12C; PG=+50) of the same compound?
A: 143 nM

Q: What about the CC50 (SN12C; read-out: LC-50, PG=-50) of the same compound?
A: 2650 nM

Q: And the “Percent Growth” value (NCI-H322M; [1])?
A: -100%

Q: What about the “Percent Growth” value (NCI-H322M; Log10 Concentration -5.0) of the same compound?
A: 10%

Q: And the “Percent Growth” value (NCI-H322M; Log10 Concentration -6.0, 1 µM)?
A: 99%

Q: And the “Percent Growth” value (NCI-H322M; [2])?
A: 139%

Q: What about the “Percent Growth” value (NCI-H322M; Log10 Concentration -8.0) of the same compound?
A: 133%

Q: What about the TGI (NCI-H322M; PG=0) of the same compound?
A: 12.3 µM

Q: And the GI50 (NCI-H322M; PG=+50)?
A: 3.55 µM

Q: And the CC50 (NCI-H322M; read-out: LC-50, PG=-50)?
A: 35.1 µM

Q: What does the source list for `COc1ccc2[nH]c3c(C)c4c(c(C)c3c2c1)CN(C)C=C4` [Formula VII]?
A: GI50 (HOP-92; HOP-92): 5.97 µM; CC50 (HOP-92; HOP-92, read-out: LC-50): 86.8 µM; activity at 0.01 µM (HOP-92; [4]): 121%; activity at 0.1 µM (HOP-92; [4]): 100%; activity at 1 µM (HOP-92; [4]): 95%; activity at 10 µM (HOP-92; [4]): 37%; activity at 100 µM (HOP-92; [4]): -56%; IC (TGI) (HOP-92; HOP-92, read-out: TGI): 25.1 µM; Percent Growth (A498; [1]): -3%; Percent Growth (A498; Log10 Concentration -5.0): 54%; Percent Growth (A498; Log10 Concentration -6.0, 1 µM): 93%; Percent Growth (A498; [2]): 114%; Percent Growth (A498; Log10 Concentration -8.0): 105%; TGI (A498; PG=0): 90.2 µM; GI50 (A498; PG=+50): 11.6 µM; CC50 (A498; read-out: LC-50, PG=-50): > 100 µM; Percent Growth (HOP-18; [1]): -6%; Percent Growth (HOP-18; Log10 Concentration -5.0): 71%; Percent Growth (HOP-18; Log10 Concentration -6.0, 1 µM): 121%; Percent Growth (HOP-18; [2]): 142%; Percent Growth (HOP-18; Log10 Concentration -8.0): 174%; TGI (HOP-18; PG=0): 82.8 µM; GI50 (HOP-18; PG=+50): 18.8 µM; CC50 (HOP-18; read-out: LC-50, PG=-50): > 100 µM; Percent Growth (NCI-H522; [1]): -46%; Percent Growth (NCI-H522; Log10 Concentration -5.0): -30%; Percent Growth (NCI-H522; Log10 Concentration -6.0, 1 µM): 40%; Percent Growth (NCI-H522; [2]): 91%; Percent Growth (NCI-H522; Log10 Concentration -8.0): 97%; TGI (NCI-H522; PG=0): 3.71 µM; GI50 (NCI-H522; PG=+50): 626 nM; CC50 (NCI-H522; read-out: LC-50, PG=-50): > 100 µM; TGI (DMS 273; PG=0): 13.4 µM; GI50 (DMS 273; PG=+50): 827 nM
